Experimental data taken from patent publication KR20100138114A, “안정성이 향상된 무정형 아데포비어 디피복실 고체분산체 및 이의 제조방법” (대원제약주식회사, priority 2009, dated 2010).

What was measured:
[1] = Crystal form conversion test of crystalline adefovir dipivoxil (Experimental Example 1, X-ray diffraction); format: physicochemical; conditions: overall conclusion: 40 °C, relative humidity 75%, 3 days, then drying at 60 °C
[2] = pH 2.0; cited from earlier work

SMILES	crystal form conversion depending on storage conditions [1]	solubility class (BCS) [2]
CC(C)(C)C(=O)OCOP(=O)(COCCn1cnc2c(N)ncnc21)OCOC(=O)C(C)(C)C [신규결정형]	결정형이 전환	
CC(C)(C)C(=O)OCOP(=O)(COCCn1cnc2c(N)ncnc21)OCOC(=O)C(C)(C)C [아데포비어 디피복실, 9-[2-[[{bis(pivaloyloxy)-methoxy}phosphinyl]methoxy]ethyl]adenine]		높은 용해도(High solubility)
